Data reported in ChEMBL document CHEMBL1201862, “PubChem BioAssay data set” (2004).
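Cultured in 96-well plates, cells were exposed to test compound for 48 hours across five concentrations. The concentration for 50% growth inhibition is given as GI50.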 Activity calls are given as the source filed them. Rule as the data show it: active = GI50 up to about 1.1 µM and inactive = higher.

How the values were obtained:
Assay in all cases: NCI anticancer screen, dose series, 48 h
786-0 = test system: 786-0
A498 = test system: A498
A549 = test system: A549
ACHN = test system: ACHN
BT-549 = test system: BT-549
CAKI-1 = test system: CAKI-1
CCRF-CEM = test system: CCRF-CEM
COLO 205 = test system: COLO 205
DU-145 = test system: DU-145
EKVX = test system: EKVX
HCC 2998 = test system: HCC 2998
HCT-116 = test system: HCT-116
HCT-15 = test system: HCT-15
HL-60 = test system: HL-60
HOP-62 = test system: HOP-62
HOP-92 = test system: HOP-92
HT-29 = test system: HT-29
Hs-578T = test system: Hs-578T
IGROV-1 = test system: IGROV-1
K562 = test system: K562
KM12 = test system: KM12
LOX IMVI = test system: LOX IMVI
M14 = test system: M14
MCF7 = test system: MCF7
MDA-MB-231 = test system: MDA-MB-231
MDA-MB-435 = test system: MDA-MB-435
MDA-N = test system: MDA-N
MOLT-4 = test system: MOLT-4
Malme-3M = test system: Malme-3M
NCI-H226 = test system: NCI-H226
NCI-H23 = test system: NCI-H23
NCI-H460 = test system: NCI-H460
NCI-H522 = test system: NCI-H522
NCI/ADR-RES = test system: NCI/ADR-RES
OVCAR-3 = test system: OVCAR-3
OVCAR-5 = test system: OVCAR-5
OVCAR-8 = test system: OVCAR-8
PC-3 = test system: PC-3
RPMI-8226 = test system: RPMI-8226
RXF 393 = test system: RXF 393
SF-268 = test system: SF-268
SF-295 = test system: SF-295
SF-539 = test system: SF-539
SK-MEL-28 = test system: SK-MEL-28
SK-OV-3 = test system: SK-OV-3
SN12C = test system: SN12C
SNB-19 = test system: SNB-19
SNB-75 = test system: SNB-75
SR = test system: SR
SW-620 = test system: SW-620
TK-10 = test system: TK-10
U-251 = test system: U-251
UACC-257 = test system: UACC-257
UACC-62 = test system: UACC-62
UO-31 = test system: UO-31
OVCAR-4 = test system: OVCAR-4
SK-MEL-2 = test system: SK-MEL-2
SK-MEL-5 = test system: SK-MEL-5
T47D = test system: T47D

Nc1nc(N)c2nnn(C[C@H]3CC[C@@H](CO)C3)c2n1
GI50 (786-0): > 100 µM (inactive) | GI50 (A498): > 100 µM (inactive) | GI50 (A549): > 100 µM (inactive) | GI50 (ACHN): > 100 µM (inactive) | GI50 (BT-549): > 100 µM (inactive) | GI50 (CAKI-1): > 100 µM (inactive) | GI50 (CCRF-CEM): > 100 µM (inactive) | GI50 (COLO 205): > 100 µM (inactive) | GI50 (DU-145): > 100 µM (inactive) | GI50 (EKVX): > 100 µM (inactive) | GI50 (HCC 2998): > 100 µM (inactive) | GI50 (HCT-116): > 100 µM (inactive) | GI50 (HCT-15): > 100 µM | GI50 (HL-60): > 100 µM (inactive) | GI50 (HOP-62): > 100 µM (inactive) | GI50 (HOP-92): > 100 µM (inactive) | GI50 (HT-29): > 100 µM (inactive) | GI50 (Hs-578T): > 100 µM (inactive) | GI50 (IGROV-1): 54.7 µM (inactive) | GI50 (K562): > 100 µM (inactive) | GI50 (KM12): > 100 µM (inactive) | GI50 (LOX IMVI): > 100 µM (inactive) | GI50 (M14): > 100 µM (inactive) | GI50 (MCF7): > 100 µM (inactive) | GI50 (MDA-MB-231): > 100 µM (inactive) | GI50 (MDA-MB-435): > 100 µM (inactive) | GI50 (MDA-N): > 100 µM (inactive) | GI50 (MOLT-4): > 100 µM (inactive) | GI50 (Malme-3M): > 100 µM (inactive) | GI50 (NCI-H226): > 100 µM (inactive) | GI50 (NCI-H23): > 100 µM (inactive) | GI50 (NCI-H460): > 100 µM (inactive) | GI50 (NCI-H522): > 100 µM (inactive) | GI50 (NCI/ADR-RES): > 100 µM (inactive) | GI50 (OVCAR-3): > 100 µM (inactive) | GI50 (OVCAR-5): > 100 µM (inactive) | GI50 (OVCAR-8): > 100 µM (inactive) | GI50 (PC-3): > 100 µM (inactive) | GI50 (RPMI-8226): > 100 µM (inactive) | GI50 (RXF 393): > 100 µM (inactive) | GI50 (SF-268): > 100 µM (inactive) | GI50 (SF-295): > 100 µM (inactive) | GI50 (SF-539): > 100 µM (inactive) | GI50 (SK-MEL-28): > 100 µM (inactive) | GI50 (SK-OV-3): > 100 µM (inactive) | GI50 (SN12C): 38.5 µM (inactive) | GI50 (SNB-19): > 100 µM (inactive) | GI50 (SNB-75): > 100 µM (inactive) | GI50 (SR): > 100 µM (inactive) | GI50 (SW-620): > 100 µM (inactive) | GI50 (TK-10): > 100 µM (inactive) | GI50 (U-251): > 100 µM (inactive) | GI50 (UACC-257): > 100 µM (inactive) | GI50 (UACC-62): > 100 µM (inactive) | GI50 (UO-31): > 100 µM (inactive)

CCOC(=O)C1C(=O)CC(O)(OCC)C(C(=O)OCC)C1c1ccc(OC)cc1 (centres undefined)
GI50 (786-0): > 100 µM (inactive) | GI50 (A498): > 100 µM (inactive) | GI50 (A549): > 100 µM (inactive) | GI50 (ACHN): > 100 µM (inactive) | GI50 (BT-549): > 100 µM (inactive) | GI50 (CAKI-1): > 100 µM (inactive) | GI50 (CCRF-CEM): > 100 µM (inactive) | GI50 (COLO 205): > 100 µM (inactive) | GI50 (DU-145): > 100 µM (inactive) | GI50 (EKVX): > 100 µM (inactive) | GI50 (HCC 2998): > 100 µM (inactive) | GI50 (HCT-116): > 100 µM (inactive) | GI50 (HCT-15): > 100 µM | GI50 (HL-60): > 100 µM (inactive) | GI50 (HOP-62): > 100 µM (inactive) | GI50 (HOP-92): > 100 µM (inactive) | GI50 (HT-29): > 100 µM (inactive) | GI50 (IGROV-1): > 100 µM (inactive) | GI50 (K562): > 100 µM (inactive) | GI50 (KM12): > 100 µM (inactive) | GI50 (LOX IMVI): > 100 µM (inactive) | GI50 (MCF7): > 100 µM (inactive) | GI50 (MDA-MB-231): > 100 µM (inactive) | GI50 (MDA-MB-435): > 100 µM (inactive) | GI50 (MDA-N): > 100 µM (inactive) | GI50 (MOLT-4): > 100 µM (inactive) | GI50 (Malme-3M): > 100 µM (inactive) | GI50 (NCI-H226): > 100 µM (inactive) | GI50 (NCI-H23): > 100 µM (inactive) | GI50 (NCI-H460): > 100 µM (inactive) | GI50 (NCI-H522): > 100 µM (inactive) | GI50 (NCI/ADR-RES): > 100 µM (inactive) | GI50 (OVCAR-3): > 100 µM (inactive) | GI50 (OVCAR-4): > 100 µM (inactive) | GI50 (OVCAR-5): > 100 µM (inactive) | GI50 (OVCAR-8): > 100 µM (inactive) | GI50 (PC-3): > 100 µM (inactive) | GI50 (RXF 393): > 100 µM (inactive) | GI50 (SF-268): > 100 µM (inactive) | GI50 (SF-295): > 100 µM (inactive) | GI50 (SK-MEL-28): > 100 µM (inactive) | GI50 (SK-MEL-2): > 100 µM (inactive) | GI50 (SK-MEL-5): > 100 µM (inactive) | GI50 (SN12C): > 100 µM (inactive) | GI50 (SNB-19): > 100 µM (inactive) | GI50 (SNB-75): > 100 µM (inactive) | GI50 (SR): > 100 µM (inactive) | GI50 (SW-620): > 100 µM (inactive) | GI50 (T47D): > 100 µM (inactive) | GI50 (TK-10): > 100 µM (inactive) | GI50 (U-251): > 100 µM (inactive) | GI50 (UACC-257): > 100 µM (inactive) | GI50 (UACC-62): > 100 µM (inactive) | GI50 (UO-31): > 100 µM (inactive)
